Source: paper PMC9504587, “Cytotoxic Drimane-Type Sesquiterpenes from Co-Culture of the Marine-Derived Fungi Aspergillus carneus KMM 4638 and Beauveria felina (=Isaria felina) KMM 4639” (Marine Drugs, 2022)
Converted amounts (≈) assume the structure as drawn. Like-named read-outs stand apart in the source and are kept apart here.

Tests used:
[1] = system: normal rat cardiomyocyte H9c2 cell line; experiment: MTT cytotoxicity assay, H9c2 cells; format: cell-based; details: 24 h incubation, mean ± SEM
Experimental: (§1) PC-3, MCF-7, C6, and H9c2 cells were cultured in DMEM medium (Biolot, St. Petersburg, Russia) containing 10% fetal bovine serum (Biolot, St. Petersburg, Russia) and 1% penicillin/streptomycin (Biolot, St. Petersburg, Russia) at 37 °C in a humidified atmosphere with 5% (v/v) CO2. The Raji cells were cultured in RPMI-1640 medium (Biolot, St. Petersburg, Russia) containing 10% fetal bovine serum (Biolot, St. Petersburg, Russia) and 1% penicillin/streptomycin (Biolot, St. Petersburg, Russia) under the same conditions.
(§2) Initially, cells were incubated in culture flasks until subconfluent (~80%). For testing, the cells were seeded at concentrations of 5 × 10^3 cells/well (PC-3, MCF-7, Raji, and C6 cells) or 3 × 10^3 cells/well (H9c2 cells), and experiments were started after 24 h.
(§3) The in vitro cytotoxicity of individual substances was determined by the MTT method (3-(4,5-dimethylthiazol-2-yl)-2,5-diphenyltetrazolium bromide), according to the manufacturer’s instructions (Sigma-Aldrich, St. Louis, MO, USA).
(§4) Investigated compounds were dissolved in DMSO at a concentration of 10 mM.
(§5) The cells were treated with the investigated compounds for 24 h or 48 h, and MTT reagent was added to each well of the plate. The vehicle with DMSO at a concentration of 1% was used as a control. The absorbance of formed formazan was measured at λ = 570 nm using a Multiskan FC microplate photometer (Thermo Scientific, Waltham, MA, USA) and expressed in optical units (o.u.). The results are presented as % of viable cells relative to vehicle, and 50% inhibition concentration of cell viability (IC50) was calculated.

PC 12 = system: PC 12; parameters: method as in PMID 19778087; details: cited from earlier work
lymphoma L5178Y = system: lymphoma L5178Y; parameters: method as in PMID 19778087; details: cited from earlier work
[2] = system: human lung cancer A549 cells; parameters: method as in PMID 19769341; details: cited from earlier work
rat glioblastoma C6 = experiment: MTT cytotoxicity assay, C6 cells; format: cell-based; details: 24 h incubation, mean ± SEM
Experimental: as §1, §2, §3, §4, §5

human lymphoma Raji = experiment: MTT cytotoxicity assay, Raji cells; format: cell-based; details: 24 h incubation, mean ± SEM
Experimental: as §1, §2, §3, §4, §5

SHP2 = target: SHP2; parameters: method as in earlier work; details: cell-free assay; cited from earlier work
[3] = system: human prostate cancer PC-3; experiment: MTT cytotoxicity assay, PC-3 cells; format: cell-based; details: 24 h incubation, mean ± SEM
Experimental: as §1, §2, §3, §4, §5

[4] = system: human leukemia HL-60 cells; parameters: method as in PMID 19769341; details: read-out: IC50, HL-60 cell viability; cited from earlier work
HeLa cells = system: HeLa cells; parameters: method as in PMID 19778087; details: cited from earlier work
[5] = system: human breast cancer MCF-7; experiment: MTT cytotoxicity assay, MCF-7 cells; format: cell-based
Experimental: as §1, §2, §3, §4, §5

MCF-7 cells [6] = experiment: Cell cycle analysis by flow cytometry (propidium iodide); format: cell-based, human; details: 10 µM, 48 h
Experimental: After incubation, cells were trypsinized, harvested, washed with PBS, and fixed with ice-cold 70% ethanol in a dropwise manner prior to storage at −20 °C overnight. The cells were then washed with PBS, incubated with 200 μg/mL RNAse (PanReac, AppliChem, Darmstadt, Germany) and 20 μg/mL of propidium iodide (Sigma-Aldrich, St. Louis, MO, USA) for 30 min at 37 °C, and the DNA content was analyzed with a Muse® cell analyzer (Luminex, Austin, TX, USA). The data were processed by Muse 1.5 analysis software (Luminex, Austin, TX, USA). The proportion of cells in each phase of the cell cycle was expressed as a percentage.

MCF-7 cells [7] = experiment: Apoptosis profile by flow cytometry (Muse annexin V and dead cell kit); format: cell-based, human; details: 10 µM, 48 h
Experimental: After incubation, culture media were collected; then, cells were washed twice with cold PBS and incubated with trypsin-EDTA solution for 1 min. The cell suspension was washed twice by centrifugated at 250× g for 4 min with cold PBS and used for apoptosis detection by a Muse® annexin V and dead cell kit in accordance with manufacturer’s instructions (Luminex, Austin, TX, USA). Fluorescence was measured with a Muse® cell analyzer (Luminex, Austin, TX, USA), and data were processed by Muse 1.5 analysis software (Luminex, Austin, TX, USA). The proportion of apoptotic cells was expressed as a percentage.

MCF-7 cells [8] = experiment: Total caspase activity by flow cytometry (Muse multicaspase kit); format: cell-based, human; details: 10 µM, 48 h; control 4.7%
Experimental: The influence of the compounds on the percentage of live MCF-7 cells (caspase−/7-AAD−), live MCF-7 cells with caspase activity (caspase+/7-AAD−), dead MCF-7 cells with caspase activity […] MCF-7 cells (caspase−/7-AAD+) was measured by a Muse® multicaspase kit (Luminex, Austin, TX, USA). The kit utilizes a VAD-peptide derivatized with a fluorescent group called fluorescent-labeled inhibitor of caspases (FLICA). The peptide binds to activated caspases, resulting in a fluorescent signal proportional to the number of active caspases in the cell. Fluorescent dye 7-AAD was used as a dead cell marker in this assay.
After incubation, culture media were collected, and cells were washed twice with cold PBS and incubated in trypsin-EDTA solution for 1 min. The cell suspension was washed twice by centrifugation at 250× g for 4 min with cold PBS and then used for caspase activity detection by a Muse® multicaspase kit (caspases 1, 3, 4, 5, 6, 7, 8, and 9) in accordance with manufacturer’s instructions (Luminex, Austin, TX, USA). Fluorescence was measured with a Muse® cell analyzer (Luminex, Austin, TX, USA), and data were processed by Muse 1.5 analysis software (Luminex, Austin, TX, USA).

PTP1B = target: PTP1B; parameters: method as in earlier work; details: cell-free assay; cited from earlier work
[9] = system: H9c2, C6, PC-3, Raji and MCF-7 cells; experiment: MTT cytotoxicity, summary statements over several cell lines; format: cell-based; details: 24 h, range over both compounds and three cell lines
Experimental: as §3, §4, §5

[10] = system: murine leukemia P388 cells; parameters: method as in PMID 21628915; details: read-out: IC50, P388 cell viability; cited from earlier work
[11] = system: Ceratobasidium cornigerum; parameters: method as in PMID 32605151; details: cited from earlier work
Edwardsiella tarda = system: Edwardsiella tarda; parameters: method as in PMID 32605151; details: cited from earlier work
[12] = system: human histiocytic lymphoma U937 cell line; parameters: method as in PMID 27936301; details: cited from earlier work
[13] = Homo sapiens, MCF7, 24 h, 24 h incubation, mean ± SEM, read-out: IC50, MCF-7

CC1(C)CCC[C@@]2(C)[C@H]1[C@H](OC(=O)/C=C/C=C/C=O)C=C1COC(=O)[C@@]12O [Compound 9, ustusolate E]
IC50 ([1]; Rattus norvegicus, H9c2, 24 h): 66.9 ± 3 µM | IC50 (PC 12): 19.3 µM | IC50 (lymphoma L5178Y): 1.6 µM | toxicity against A549 cells [2]: nontoxic | IC50 (rat glioblastoma C6; Rattus norvegicus, C6, 24 h): 54.3 ± 3.3 µM | IC50 (human lymphoma Raji; Homo sapiens, Raji, 24 h): 88.1 ± 1.3 µM | IC50, SHP2 enzyme activity (SHP2): 40 µg/mL (≈ 107 µM) | IC50 ([3]; Homo sapiens, PC-3, 24 h): 50.1 ± 1.8 µM | IC50 [4]: 8 µM | IC50 (HeLa cells): 15.8 µM | decrease in MCF-7 cell viability ([5]; 10 µM, 48 h): ~50% | IC50 ([5]; 48 h incubation, concentrations up to 10 µM, read-out: IC50, MCF-7 cell viability, prolonged incubation): 10.1 ± 0.5 µM | IC50 [5, 13]: 57.8 ± 0.5 µM | IC50 ([5]; Homo sapiens, MCF7, 48 h, 48 h incubation, concentrations up to 10 µM, read-out: IC50, MCF-7 cell viability, prolonged incubation): 10 µM | subG0 cells (MCF-7 cells [6]; control 5.4%): 24.7% | decrease in the percentage of cells in the S phase (MCF-7 cells [6]; relative to control): 41.2% | increase of the percentage of cells in the G2/M phase (MCF-7 cells [6]; relative to control): 67.3% | reduction of the percentage of cells in the G0/G1 phase (MCF-7 cells [6]; relative to control): 33.3% | increase of the subG0 population of cells (MCF-7 cells [6]; versus control): 4.6 times | amount of apoptotic cells (early and late) (MCF-7 cells [7]; control 1.7%): 6.8% | amount of living cells (MCF-7 cells [7]; control 98.6%): 94.1% | percentage of cells exhibiting caspase activity (living and 7-AAD-labeled) (MCF-7 cells [8]): 12.4% | IC50, PTP1B enzyme activity (PTP1B): 50 µg/mL (≈ 134 µM) | IC50 [9]: 54.3 to 88.1 µM

CC(O)C(=O)/C=C/C=C/C(=O)O[C@@H]1C=C2COC(=O)[C@]2(O)[C@@]2(C)CCCC(C)(C)[C@H]12 (stereo partly shown) [Compound 10, (6-strobilactone A) ester of (E,E)-6-carbonyl-7-hydroxy-2,4-octadienoic acid]
IC50 ([1]; Rattus norvegicus, H9c2, 24 h): 61.9 ± 0.5 µM | IC50 (rat glioblastoma C6; Rattus norvegicus, C6, 24 h): > 100 µM | IC50 (human lymphoma Raji; Homo sapiens, Raji, 24 h): 95.3 ± 0.8 µM | IC50 ([3]; Homo sapiens, PC-3, 24 h): 57.8 ± 1.1 µM | IC50 [10]: 8.7 µM | IC50 [5, 13]: 55.1 ± 1.4 µM

CC(O)C(O)/C=C/C=C/C(=O)O[C@@H]1C=C2COC(=O)[C@]2(O)[C@@]2(C)CCCC(C)(C)[C@H]12 (stereo partly shown) [Compound 11, (6-strobilactone A) esters of (E,E)-6,7-dihydroxy-2,4-octadienoic acid]
IC50 ([1]; Rattus norvegicus, H9c2, 24 h): > 100 µM | IC50 (rat glioblastoma C6; Rattus norvegicus, C6, 24 h): > 100 µM | IC50 (human lymphoma Raji; Homo sapiens, Raji, 24 h): 96.9 ± 1.6 µM | IC50 ([3]; Homo sapiens, PC-3, 24 h): > 100 µM | IC50 [5, 13]: 83.5 ± 1.7 µM

CC(O)C(O)/C=C/C=C/C(=O)O[C@@H]1C=C2COC(=O)[C@]2(O)[C@@]2(C)CCCC(C)(C)[C@H]12 (stereo partly shown) [Compound 12, (6-strobilactone A) esters of (E,E)-6,7-dihydroxy-2,4-octadienoic acid]
IC50 [1]: > 100 µM | IC50 (rat glioblastoma C6): > 100 µM | IC50 (human lymphoma Raji): 97.5 ± 0.9 µM | IC50 [3]: > 100 µM | IC50 ([5]; 24 h incubation, mean ± SEM, read-out: IC50, MCF-7): 81.7 ± 0.9 µM

C=C(C)[C@H]1[C@H](OC(C)=O)C[C@H](C)[C@@]12CC=C(C)[C@@H](OC(=O)CCCCCCCC=CCC=CCCCCC)C2 [chermebilaene A]
MIC, Ceratobasidium cornigerum [11]: 0.5 µg/mL (≈ 0.925 µM) | MIC, Edwardsiella tarda (Edwardsiella tarda): 0.25 µg/mL (≈ 0.462 µM)

aluminumneohydroxyaspergillin
IC50 [12]: 4.2 µM
